We go through three molecules from publication PMC4657038, “Large-Scale Computational Screening Identifies First in Class Multitarget Inhibitor of EGFR Kinase and BRD4” (Scientific Reports, 2015).

Values joined by “and” are separate entries in the source; they are usually repeats but may differ in a detail not shown here. Identical values can stand only once. Like-named read-outs stand apart in the source and are kept apart here.

In test [1] the target is T1, BRD4(1) (Homo sapiens, UniProt O60885). As to the kind of experiment: BRD4(1) biochemical alphascreen assay (disruption of BRD4(1) binding to acetylated biotin-histone 4 peptide). The arrangement: BRD4-BD1 (49–170, BPS Bio #31042) was stored at −80 °C; purchased BPS Bio 31042. Particulars: for IC50: alpha screen, average, 9 concentrations in triplicate (n = 3), read-out: IC50 against BRD4(1). The source says: After searching multiple commercial providers for the top 108 compounds, Enamine LLC (http://www.enamine.net/) provided 24 compounds comprising 5 chemical scaffolds including substituted 2-pyrrolidinones, quinazolin-4-amines, thienopyrimidin-4-amines, and imidazolidinones (Supplementary Table 2). […] As illustrated, several compounds have confirmed activity against BRD4(1) and one compound, Z118332870 (2870), is active against BRD4 and EGFR kinase. Compounds that were not confirmed BRD4(1) actives were not tested in the EGFR assay because we were primarily interested in novel dual BRD4 and EGFR inhibitors. To evaluate small molecule BRD4 bromodomain binding, we utilized a biochemical alphascreen assay that measured disruption of BRD4(1) binding to pre-acetylated biotin-histone 4 peptide by proximity detection of the conjugated donor and acceptor beads via transient singlet oxygen. […] To validate results, a counter-screen assay (see Methods for details) was performed to ensure that compounds were not interacting with assay components other than recombinant BRD4(1) (Supplementary Figure 3).
The BRD4(1) alpha screen assay was performed with a pre-acetylated Biotin-Histone 4 Peptide [H4K5/8/12/16(Ac)] 1 – 21 (AnaSpec #64989-025, 0.25 mg). A 200 μM stock was made and stored at −80 °C. BRD4-BD1 (49–170, BPS Bio #31042) was stored at −80 °C at a concentration of 50 μM. All compounds used in assays were kept in a 10 mM stock at −80 °C, with I-BET151 being used as a control. The assay buffer contained 50 mM HEPES, 100 mM NaCl, and 0.1% BSA at a pH of 7.4, and was stored at 4 °C. 10% CHAPS (Sigma C3023) was added to the assay buffer before each experiment and was stored at room temperature.
Before use, assay buffer was equilibrated to room temperature and supplemented with 0.05% CHAPS. 3X His-BRD4-BD1 was diluted in assay buffer to 600 nM with a final concentration of 200 nM in a 12 μl reaction volume. 4 μl per well of 3X His-BRD4-BD1 was added to an OptiPlate-384 (Perkin Elmer #6007290) covered with Top Seal-A Film (Perkin Elmer #6005250) and pulsed at 900 × g. 3X BRD Inhibitors or DMSO vehicle was prepared in Assay Buffer starting at 300 μM and diluting 3X to 46 nM. 4 μl of buffer (positive control), 3X DMSO Vehicle, or 3X BRD Inhibitor (I-BET151 as control) were added to each well, sealed with Top Seal-A film and pulsed at 900 × g. The plate was then incubated at room temperature for 30 minutes. 3X Biotin-H4K4Ac was prepared by diluting stock in Assay Buffer to 600 nM, with a final concentration of 200 nM in a 12 μl reaction volume. 4 μl of Biotin-H4K4Ac was added per well, sealed and pulsed at 900 × g. The plate was then incubated at room temperature for another 30 minutes. AlphaLISA Nickel Chelate Acceptor Beads (Perkin Elmer #1547780, 5 mg/ml, 4 °C) and AlphaScreen Streptavidin Donor Beads (Perkin Elmer #6760002, 5 mg/ml, 4 °C) were prepared at 2.5X by diluting in Assay Buffer to 25 μg/ml with a final concentration of each bead equaling 10 μg/ml in a 20 μl reaction volume. 8 μl per well of Donor and Acceptor beads were added in the dark to each well, sealed, wrapped with foil to protect from light, and pulsed at 900 × g. The plate was then incubated at room temperature for 60 minutes and read on an EnVision instrument using Alpha Mode (680 excitiation/615 emission/read signal). Dose response curves were obtained and interpreted using GraphPad Prism software for curve fitting to obtain IC50 values. […]

The target in a further test is EGFR (ERBB1) (Homo sapiens, UniProt P00533). As to the kind of experiment: EGFR kinase activity enzyme assay (radioisotope filter binding, hotspot). The format is biochemical.
Chain of EGFR (ERBB1) (P00533 25-1210): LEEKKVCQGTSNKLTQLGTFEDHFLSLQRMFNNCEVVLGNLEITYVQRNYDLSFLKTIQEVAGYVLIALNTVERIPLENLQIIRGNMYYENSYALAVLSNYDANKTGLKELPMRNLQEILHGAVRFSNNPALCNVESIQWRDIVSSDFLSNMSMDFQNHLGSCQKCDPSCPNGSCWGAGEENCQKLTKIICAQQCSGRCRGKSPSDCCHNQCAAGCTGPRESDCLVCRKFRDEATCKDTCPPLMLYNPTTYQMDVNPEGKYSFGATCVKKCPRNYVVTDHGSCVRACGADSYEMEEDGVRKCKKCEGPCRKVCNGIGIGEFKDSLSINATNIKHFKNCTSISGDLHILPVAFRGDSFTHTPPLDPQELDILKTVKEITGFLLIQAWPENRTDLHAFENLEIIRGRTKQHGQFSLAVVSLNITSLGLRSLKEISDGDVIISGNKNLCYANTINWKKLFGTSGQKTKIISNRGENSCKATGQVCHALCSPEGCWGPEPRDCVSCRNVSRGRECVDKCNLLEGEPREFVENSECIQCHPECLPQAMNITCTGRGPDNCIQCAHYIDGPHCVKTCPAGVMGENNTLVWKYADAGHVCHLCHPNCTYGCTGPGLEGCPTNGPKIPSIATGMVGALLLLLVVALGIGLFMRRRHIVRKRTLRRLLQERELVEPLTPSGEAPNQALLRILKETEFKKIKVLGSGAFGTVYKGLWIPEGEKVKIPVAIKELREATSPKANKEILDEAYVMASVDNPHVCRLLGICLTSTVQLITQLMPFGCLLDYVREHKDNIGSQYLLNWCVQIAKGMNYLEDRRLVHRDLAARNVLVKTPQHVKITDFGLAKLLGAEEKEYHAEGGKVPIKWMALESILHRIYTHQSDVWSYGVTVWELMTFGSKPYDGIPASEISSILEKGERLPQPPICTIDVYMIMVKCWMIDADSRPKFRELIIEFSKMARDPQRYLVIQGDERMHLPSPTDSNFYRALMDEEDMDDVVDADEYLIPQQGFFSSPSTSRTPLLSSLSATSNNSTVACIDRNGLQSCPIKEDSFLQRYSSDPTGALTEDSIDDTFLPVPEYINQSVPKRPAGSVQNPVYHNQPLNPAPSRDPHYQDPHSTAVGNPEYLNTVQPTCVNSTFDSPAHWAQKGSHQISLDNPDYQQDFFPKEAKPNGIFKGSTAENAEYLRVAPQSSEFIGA
In the next test the target is ERBB2 (Homo sapiens, UniProt P04626). As to the kind of experiment: Kinase activity enzyme profiling, ERBB2. Format: biochemical.
Chain of ERBB2 (P04626 23-1255): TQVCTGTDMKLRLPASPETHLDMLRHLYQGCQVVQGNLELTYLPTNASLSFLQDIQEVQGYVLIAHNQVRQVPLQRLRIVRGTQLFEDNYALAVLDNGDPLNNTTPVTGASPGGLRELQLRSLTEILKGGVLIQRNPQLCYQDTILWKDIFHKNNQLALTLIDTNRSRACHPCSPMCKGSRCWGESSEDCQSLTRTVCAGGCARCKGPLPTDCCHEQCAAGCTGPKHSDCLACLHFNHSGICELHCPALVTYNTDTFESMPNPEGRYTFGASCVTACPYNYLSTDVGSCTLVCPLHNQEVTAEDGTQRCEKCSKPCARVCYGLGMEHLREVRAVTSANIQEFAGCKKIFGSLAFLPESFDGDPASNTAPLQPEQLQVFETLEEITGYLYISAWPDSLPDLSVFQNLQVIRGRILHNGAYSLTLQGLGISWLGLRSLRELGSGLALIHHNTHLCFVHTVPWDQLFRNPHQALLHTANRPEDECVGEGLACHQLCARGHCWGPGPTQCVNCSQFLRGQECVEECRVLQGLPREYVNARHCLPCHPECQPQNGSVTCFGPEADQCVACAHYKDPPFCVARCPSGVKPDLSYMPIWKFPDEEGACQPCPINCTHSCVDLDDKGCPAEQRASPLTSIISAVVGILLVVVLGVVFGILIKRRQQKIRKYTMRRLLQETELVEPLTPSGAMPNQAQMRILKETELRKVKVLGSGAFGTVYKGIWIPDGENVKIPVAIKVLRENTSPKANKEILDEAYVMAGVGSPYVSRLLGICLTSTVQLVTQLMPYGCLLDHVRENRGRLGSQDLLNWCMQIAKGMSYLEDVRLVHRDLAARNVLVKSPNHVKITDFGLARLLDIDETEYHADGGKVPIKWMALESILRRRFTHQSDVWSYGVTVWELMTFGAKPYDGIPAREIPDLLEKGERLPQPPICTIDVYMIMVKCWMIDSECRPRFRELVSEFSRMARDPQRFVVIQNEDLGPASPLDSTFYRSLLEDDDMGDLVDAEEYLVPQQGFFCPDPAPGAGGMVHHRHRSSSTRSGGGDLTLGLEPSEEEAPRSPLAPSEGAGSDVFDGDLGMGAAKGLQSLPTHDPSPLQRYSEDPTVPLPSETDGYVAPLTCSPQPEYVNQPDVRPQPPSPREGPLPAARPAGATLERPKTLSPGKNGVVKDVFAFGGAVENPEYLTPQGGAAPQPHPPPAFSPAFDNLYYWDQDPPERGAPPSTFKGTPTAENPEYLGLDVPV
A further test has as its target ERBB4 (Homo sapiens, UniProt Q15303). As to the kind of experiment: Kinase activity enzyme profiling, ERBB4. Format: biochemical.
Test [2] has as its target T1, BRD4(1). As to the kind of experiment: Differential scanning fluorimetry (DSF) with BRD4(1). Format: binding. The arrangement: Bromodomain 1 (BRD4(1)) and Bromodomain 2 (BRD4(2)). The method, then: The inhibitory activity of compound Z118332870 (2870) against BRD4(1) was assessed by DSF using a StepOnePlus Real-Time PCR system (Applied Biosystems). Purified BRD4(1) (4 μM final concentration; 10 mM HEPES (pH 7.5), 100 mM NaCl, and 1 mM DTT) was assayed, in triplicates, in a 96-well plate. Compound was added to a final concentration of 100 μM and 2% DMSO. Protein Thermal Shift Dye (1:8000; Applied Biosystems) was used as the fluorescent probe and fluorescence was measured using the ROX Reporter channel (620 nm). Protein stability was investigated by programing the thermocycler to increase the temperature from 25 °C to 99 °C using 0.2 °C increments and 10 second incubations per increment. The inflection point of the transition curve/melting temperature (Tm) was calculated using the Boltzmann equation within the Protein Thermal Shift Software (v.1.1) (Applied Biosystems). The ΔTm was calculated by using DMSO control wells as a reference.

Chain of ERBB4 (Q15303 26-1308): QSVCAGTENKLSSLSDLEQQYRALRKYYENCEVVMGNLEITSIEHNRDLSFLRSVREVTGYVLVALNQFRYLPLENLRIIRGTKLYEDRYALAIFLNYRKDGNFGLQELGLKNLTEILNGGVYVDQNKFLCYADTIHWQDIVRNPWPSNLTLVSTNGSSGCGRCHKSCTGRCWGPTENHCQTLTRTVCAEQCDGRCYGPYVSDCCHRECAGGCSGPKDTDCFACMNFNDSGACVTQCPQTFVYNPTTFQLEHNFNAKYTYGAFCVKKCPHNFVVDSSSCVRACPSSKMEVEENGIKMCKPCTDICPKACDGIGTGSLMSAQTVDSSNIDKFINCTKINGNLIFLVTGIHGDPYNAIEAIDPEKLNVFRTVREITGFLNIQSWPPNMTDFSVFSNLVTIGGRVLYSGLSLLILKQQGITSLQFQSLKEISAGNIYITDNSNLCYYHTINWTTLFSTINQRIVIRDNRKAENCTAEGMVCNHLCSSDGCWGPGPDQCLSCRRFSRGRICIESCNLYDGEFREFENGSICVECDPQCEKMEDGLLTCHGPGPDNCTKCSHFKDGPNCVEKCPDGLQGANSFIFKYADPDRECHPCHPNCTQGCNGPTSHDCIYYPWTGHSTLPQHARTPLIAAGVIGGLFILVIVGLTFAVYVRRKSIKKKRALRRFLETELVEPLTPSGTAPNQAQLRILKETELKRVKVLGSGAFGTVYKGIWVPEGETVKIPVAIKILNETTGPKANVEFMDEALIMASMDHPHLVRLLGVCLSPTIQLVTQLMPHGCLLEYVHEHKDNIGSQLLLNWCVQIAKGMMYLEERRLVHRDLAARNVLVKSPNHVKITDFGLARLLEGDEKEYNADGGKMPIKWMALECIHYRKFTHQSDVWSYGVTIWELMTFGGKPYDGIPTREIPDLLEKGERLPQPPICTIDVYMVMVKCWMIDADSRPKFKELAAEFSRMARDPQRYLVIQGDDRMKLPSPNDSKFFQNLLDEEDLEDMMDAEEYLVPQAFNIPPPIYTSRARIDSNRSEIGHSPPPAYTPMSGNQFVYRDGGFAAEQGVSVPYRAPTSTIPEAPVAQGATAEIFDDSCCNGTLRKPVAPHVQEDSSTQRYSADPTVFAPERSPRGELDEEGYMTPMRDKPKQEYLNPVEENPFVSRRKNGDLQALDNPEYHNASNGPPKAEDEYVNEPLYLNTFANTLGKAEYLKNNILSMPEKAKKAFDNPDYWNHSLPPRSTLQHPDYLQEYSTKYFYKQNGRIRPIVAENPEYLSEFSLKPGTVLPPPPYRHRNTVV
Experimental for EGFR (ERBB1): A radioisotope filter binding method was used in the EGFR kinase hotspot assay, performed by the Reaction Biology Corporation, LLC. The base reaction buffer was composed of 20 mM HEPES (pH 7.5); 10 mM MgCl2, 1 mM EGTA, 0.02% Brij35, 0.02 mg/mL BSA, 0.1 mM Na3VO4, 2 mM DTT, and 1% DMSO. The substrate was freshly prepared using the base reaction buffer. Kinase was added into the substrate solution at a concentration of 10 μM and gently mixed. Compounds were then added into the kinase reaction mixture. At this point, the ^33P-ATP was added into the reaction mixture to initiate the reaction. The reaction was incubated for 120 minutes at room temperature. After completion, reactions were spotted onto P81 ion exchange paper (Whatman #3698-915). Filters were then washed extensively in 0.75% Phosphoric acid and a scintillation counter was used to quantify the amount of radioactivity on the filter.

As to `c1nc(NCCCN2CCOCC2)c2c3c(sc2n1)CCC3` [compound 0012], at BRD4(1) [1], the “activity in BRD4(1) alphascreen assay (in words)” value (from here on “activity”) is listed as “Confirmed active” and the IC50 is 17 µM.

Consider `COc1cc2ncnc(NCCOc3ccccc3F)c2cc1OC` [compound 2870], for which the IC50 is 0.0442 µM on EGFR (ERBB1) (kinase enzyme activity assay, read-out: IC50 against EGFR); 0.044 µM at EGFR (ERBB1) (radioisotope filter binding assay, substrate concentration 10 μM, n = 3, read-out: IC50 against EGFR kinase); 8.73 µM at ERBB2 (kinase activity enzyme profiling, read-out: IC50 against ERBB2); 24.2 µM on ERBB4 (kinase activity enzyme profiling, read-out: IC50 against ERBB4); 9.1 µM on BRD4(1) [2] (corresponds to ΔTm based on the standard curve, read-out: predicted IC50 from DSF standard curve); 9 µM and 9.02 µM on BRD4(1) [1]. Also, the “selectivity for EGFR over ERBB2” value on ERBB2 (EGFR vs ERBB2 IC50) is recorded as “about 200 fold”. For the same molecule, the “selectivity for EGFR over ERBB4” value on ERBB4 (EGFR vs ERBB4 IC50) came to 500 fold. In addition, the ΔTm at 100 µM at BRD4(1) [2] (DSF, compound 100 μM, BRD4(1) 4 μM, relative to DMSO) was found to be 1.15 °C. At BRD4(1) [1], the “activity” value is recorded as “Confirmed active”.

For `COc1ccc(Br)cc1S(=O)(=O)Nc1cccc(N2CCCC2=O)c1` [compound 8302], the “activity” value at BRD4(1) [1] is on record as “Confirmed active”.
